Test results as given in a melting point compilation (Tetko et al.; mined from patent text by program, amines drawn as free bases though some values may be those of a salt).

melting point	Structure (SMILES)
89 to 97 °C	CC1(C)CN2C(N)=NC(c3ccc(OC(F)(F)F)cc3)(c3cccc(-c4cccnc4F)c3)C2=N1 (stereo unspecified)
103 to 110 °C	O=C(COc1ccc2ccccc2c1)N1CCCN(c2cc(N3CCCC3)nc(N3CCCC3)n2)CC1
148 to 149 °C	COC(=O)C=Cc1ccc(OCc2nc(-c3ccccc3)oc2C)c(C(F)(F)F)c1
155 to 165 °C	Cc1cc(OCc2oc(-c3ccc(C(F)(F)F)cc3)nc2C)ccc1/C=C/C(=O)O
105 °C	CC(C)[C@H]1CC[C@H](O)C=C1S(=O)(=O)c1ccccc1
278 to 280 °C	CN1CCN(c2ccc3c(=O)c(C(=O)O)cn4c3c2CCC4)CC1
152 to 154 °C	N#CNC(=N)NCCc1c[nH]cn1
134 to 135 °C	Cc1c(C(=O)OCc2ccccc2)sc(NC(=O)c2ccccc2)c1C(=O)OC(C)(C)C
128 to 129 °C	CCOC(=O)NCC(=O)c1ccc(OCC(=O)OC)cc1
77 to 82 °C	CCOC(=O)c1ccc(N2CCN(C(=O)N(CC)CC)CC2)cc1
92 to 95 °C	NC(=O)CCC(N)CO (stereo unspecified)
147 °C	CC(C)(C)CC(C)(C)c1cc(O)c(Sc2ccccc2)c(Sc2nnnn2-c2ccccc2)c1O
144 to 145 °C	Cc1nc(C(N)=O)n(-c2ccc(Cl)c(Cl)c2)c1Cl
102 to 105 °C	Cc1cc(Cn2cnc(Cl)c2CC#N)ccc1OCc1ccccc1
99 to 100 °C	CCCC(C)n1c(=O)nc(-n2cccn2)[nH]c1=O (stereo unspecified)
148 to 149 °C	COC(=O)c1cc2c(nc1Cl)CCCCC2
129 to 130 °C	CC(=O)Nc1nc2c(s1)CCN(Cc1ccccc1)CC2
156 to 158 °C	Nc1cc2c(cc1N)OCOC2
299 to 300 °C	Fc1ccc2c(c1)Oc1ccccc1-c1nc(S)[nH]c1-2
133 to 135 °C	COC(=O)c1cc(O)cc(Cl)c1
57 to 58 °C	O=C(OC1CCCCC1)c1ccc(Cl)c([N+](=O)[O-])c1

melting point	Structure (SMILES)
167 to 171 °C	CC(C)C(NC(=O)c1ccccn1)C(=O)NC(Cc1ccccc1)C(O)C(O)C(Cc1ccccc1)NC(=O)C(NC(=O)c1ccccn1)C(C)C (stereo unspecified)
129 °C	CC(=O)Nc1ccc(C(=O)c2cc(-c3ccc(S(C)(=O)=O)cc3)c(N3CCOCC3)s2)cc1
107 to 110 °C	COc1ccc2c3c(c(=O)oc2c1)CN(Cc1cccnc1)CC3
91 to 93 °C	O=C(OCc1ccc(CO)cc1COC(=O)c1ccccc1)c1ccccc1
150 to 151 °C	COc1ccc(-n2ccn([C@H](C)[C@@]3(c4ccc(F)cc4F)CO3)c2=O)cc1
146 to 147 °C	CCCc1c(OCCCSc2nnc(NC(=O)C(=O)OCC)s2)ccc(C(C)=O)c1O
212 °C	NC(CF)(Cc1cc(O)ccc1O)C(=O)O (stereo unspecified)
140 to 142 °C	CCCNC(=O)NS(=O)(=O)N1CCC(CCNC(=O)c2cc(Cl)ccc2OC)CC1
121 to 122 °C	COc1ccc(-c2nc(Sc3ccc(Cl)cc3)[nH]c2-c2ccc(OC)cc2)cc1
205 to 208 °C	CCOC(=O)Nc1cc(-c2cccc3ccccc23)c2nc(C(=O)O)ccc2c1
95 to 96 °C	COC(=N)COc1ccc(OC)cc1
174 to 176 °C	OCC(O)COc1ccc(NNC(c2ccccc2)(c2ccccc2)c2ccccc2)nn1 (racemic)
150 to 151 °C	CCN(CC)Cc1nc2cc(OC)c(OC)cc2c(-c2ccc(OC)c(OC)c2)c1C(=O)c1ccccc1
97 °C	Cn1nnc(-c2cccc(N)c2)n1
120 to 121 °C	Cc1nnc(C(CCN2CC3CC4CC(C3)CC2C4)(c2ccccc2)c2ccccc2)o1
132 to 140 °C	CC(CSC(=O)c1ccco1)C(=O)N1CCCC1C(=O)O (mixture of isomers)
228 to 229 °C	CNC(=O)c1cc(OC)c(C(=O)NC)c(NC(=O)CCl)c1OC
214 to 217 °C	O=C1CC(N2C=Nc3cccc(Br)c3C2)C(=O)N1 (stereo unspecified)
126 to 128 °C	O=C1c2ccccc2C(O)(c2ccc(F)cc2)C2=NCCCN12 (stereo unspecified)
81 to 83 °C	CCOP(=O)(Cc1cc2c(cc1CP(=O)(OCC)OCC)C(CC)(CC)N(Cc1ccccc1)C2(CC)CC)OCC

More lines, now with the values behind:

Structure (SMILES)	melting point
CC(C)(C)OC(=O)NCCCc1ccc(OCCC2Oc3ccccc3N(Cc3cccc(Cl)c3)C2=O)cc1 (stereo unspecified)	75 to 81 °C
O=C(C=Cc1ccc(O)c(OC(F)(F)F)c1)C(CCOCCO)C(=O)C=Cc1ccc(O)c(OC(F)(F)F)c1 (stereo unspecified)	112 to 114 °C
CC(C)OC(=O)COCc1cc(-c2nn(C)c(C(F)(F)F)c2Cl)c(F)cc1Cl	55 °C
Cc1oc(-c2ccccc2)nc1CSc1ccc(S(=O)(=O)Nc2ccccc2C(=O)O)cc1	182 to 184 °C
C=CC(=O)N1CCC(C(=O)O)CC1	109 to 110 °C
O=C(O)c1cc([N+](=O)[O-])cn1C1CCCC1	195 to 198 °C
COc1nc(C)c(C(C)=O)cc1NC(=S)N1CCN(c2cccc(O)c2)CC1	114 to 115 °C
O=C1c2nccc(Cl)c2-c2nc3ccccc3c3ccnc1c23	> 260 °C
COc1ccc(S(=O)(=O)N2C(=O)[C@@](c3ccccc3OC)(N3C[C@H](OC(N)=O)C[C@H]3C(=O)N(C)C)c3cc(Cl)ccc32)c(OC)c1	115 to 125 °C
CN(c1cccc2cc(C3=NCC(C)(CCO)S3)[nH]c12)S(=O)(=O)c1cccs1 (stereo unspecified)	149 to 150 °C
Cc1[nH]c(C=O)c(C)c1C(=O)NCCC1CCCN1C (stereo unspecified)	143 to 149 °C
CC(=O)OCc1cc(Cl)ccc1Sc1ccccc1CN(C)C	41 to 44 °C
CC(C)(C)OC(=O)NC(C)(C)c1ccc(-c2nc(Nc3ccc(-n4ccnc4)cc3)ncc2Cl)cc1	218 to 220 °C
CCOc1ccc(/C=C(\C)C(=O)O)cc1	180 °C
COC(=O)c1ccc(Cn2nc(Cl)c3ccc([N+](=O)[O-])cc32)c(OC)c1	131 to 132 °C
CCOC(=O)c1ncc2[nH]c3ccc(I)cc3c2c1COC	204 to 206 °C
CCOC(=O)c1cnoc1-c1ccc(F)c(Br)c1	111 to 112 °C
O=C(NO)NCCCCC1CCSS1 (stereo unspecified)	100 to 101 °C
COC(C#N)c1ccc2ccccc2c1 (stereo unspecified)	47 to 48 °C
CCCC(=O)C(=O)NCC(OCC)(OCC)c1ccncc1	95 to 96 °C
CCN(CC)c1ccc(N(CC)CC)c(N2CCNCC2)n1	120 °C
CCOC(=O)Cc1c(C(=O)OCC)sc2c1cc(C(=O)OCC)n2CC(=O)OCC	190 °C
Cc1cc2c(-c3cccc(C(F)(F)F)c3)nc(C#N)nc2s1	121 to 122 °C
CCc1nc(-c2ccccc2Cl)nn1C	44 °C
COc1cc(OC)nc(-c2c(N)n(S(=O)(=O)C(F)F)c3ccccc23)n1	156 to 158 °C
Cc1ccc(NC(=O)c2ccc(/C=C/C(=O)NOC3CCCCO3)cc2)cc1Nc1nc(-c2cccnc2)cs1 (stereo unspecified)	168 °C
O=C(Nc1ccc(C(F)(F)F)cc1)NC1CCN(S(=O)(=O)c2ccc(Cl)cc2)CC1	266 to 270 °C
CS(=O)(=O)c1ccc(N2CC(O)(C(F)(F)F)N=C2c2ccccc2)cc1 (stereo unspecified)	189 to 190 °C
COc1ccccc1N1CCN(Cc2ccc(NC(=O)C3=Cc4cc(-c5ccc(C)cc5)ccc4CC3)cc2)CC1	202 to 205 °C
N#Cc1ccc(NC(CNCC(=O)O)[N+](=O)[O-])cc1 (stereo unspecified)	230 °C
